Like-named read-outs stand apart in the source and are kept apart here.
Legend:
subcutaneous DAOY tumors = details: oral, thrice a week; axitinib 50 mg/kg, etoposide 30 mg/kg, combination 25 + 15 mg/kg
Protocol: For subcutaneous xenograft experiments, tumor cells expressing the luciferase (350,000 HDMB-Luc cells and 1.10^6 DAOY-Luc cells) were resuspended in 200 µL of 5 µg/mL Matrigel (Corning Inc., Corning, NY, USA) and injected subcutaneously in the flank of 5-week-old Rj:NMRI-Foxn1 nude (nu/nu) female mice (Janvier Labs, Le Genest-Saint-Isle, France). Saline solution (NaCl 0.9M; 100 µL) containing 30 mg/mL D-Luciferin (Perkin Elmer, Wellesley, MA, USA) was injected intraperitoneally in the animals and the bioluminescence was quantified using an In Vivo Imaging System (Perkin Elmer, Wellesley, MA, USA) according to the manufacturer’s instructions. Tumor volume (V = L × l2 × 0.52) was determined with a caliper and the endpoint was determined as a tumor volume of 1000 mm^3. […] The mice were sacrificed when the tumor reached 1000 mm^3. […]
(§1) The growth rate of the tumors generated with HD-MB03 cells was determined using a linear regression method applied to the growth curves between the sizes of 400 mm^3 up to the endpoint using Prism 5 (Graphpad Software Inc., San Diego, CA, USA).
Tumor samples were recovered from the animals and embedded in the OCT compound according to the manufacturer’s protocol (Thermo Fisher Scientific Inc., Waltham, MA, USA). […] All the images were then quantified with the CellProfiler 3.0 software.

[1] = test system: HD-MB03 intracranial tumors
Protocol: HD-MB03-Luc spheroids were stereotaxically implanted into the brains of 9-week-old Rj:NMRI-Foxn1 nude (nu/nu) female mice (Janvier Labs, Le Genest-Saint-Isle, France). Briefly, MB spheroids were generated with 2500 cells grown for 48 h in ultralow-adhesion spheroid 96-well plates (Corning, Corning, NY, USA) and three spheroids per mouse were implanted into the left cerebellar hemisphere (2 mm posterior, 1.5 mm left of the lambda point and 2.5 mm deep) using a Hamilton syringe fitted with a needle (Hamilton, Bonaduz, Switzerland) and following the procedure already described. […] Oral gavage with a vehicle solution was used as the control. Mouse survival was based on the presence of neuropathological symptoms including gait defects and a loss of weight over 10% as endpoints. A minimum of five mice per group was chosen to yield sufficient statistical power (p < 0.05, one-way ANOVA). These experiments were carried out in strict accordance with the recommendations in the Guide for the Care and Use of Laboratory Animals. Our experiments were approved by Direction de l’Action Sanitaire et Sociale of the Principality of Monaco and the ethics committee of Centre Scientifique de Monaco.
(§2) Tumor samples were recovered from the animals and embedded in the OCT compound according to the manufacturer’s protocol (Thermo Fisher Scientific Inc., Waltham, MA, USA). After that, 5 µm thin sections were prepared with a cryostat (Leica Microsystems, Wetzlar, Germany). Incubation was carried out with the following antibodies diluted at 1:1000 in TBS supplemented with 1% horse serum and 1% BSA for 20 min at room temperature: anti-Ki67 (cat. number ab16667, Abcam, Cambridge, UK), anti-CD31 (cat. number 550274, BD Biosciences, Frankton Lake, NJ, USA) or anti-αSMA (cat. number A2547, Merck Millipore, Burlington, MA, USA). The preparations were then washed with TBS–0.025% Triton, incubated with anti-rabbit Alexa488 and anti-mouse Alex-555-coupled secondary antibodies (Cell Signaling Technology, Danvers, MA, USA), washed with TBS–0.025% Triton, and the nuclei were counterstained with Hoechst33342 (Thermo Fisher Scientific, Waltham, MA, USA). Fluorescence images of the cells were taken with a DMI400 inverted microscope equipped with a 40× objective (Leica Microsystemes, Nanterre, France) and a Zyla 5.5 camera (Andor Technologies, Belfast, UK) powered by the Micromanager software. At least one cross-section of nonoverlapping images of each tumor was acquired. All the images were then quantified with the CellProfiler 3.0 software.

DAOY [2] = experiment: Cumulative population doubling (CPD), DAOY; format: cell-based, human; details: continuous treatment; axitinib 5 µM, etoposide 1 µM
Protocol: (§3) Cumulative population doubling (CPD) was assessed as previously described. Briefly, depending on the cell line, a variable number of cells corresponding to about 30% confluency were seeded in triplicate in 60 mm diameter Petri dishes. […] The cells were harvested when the confluency reached about 90%, counted and plated again at a dilution of 1/20. CPD was calculated as previously described.

[3] = test system: C8-D1A/HD-MB03 mixed spheroids; experiment: 3D mixed spheroids of astrocytes and MB cells; format: cell-based; details: 7 days; axitinib 5 µM or etoposide 1 µM
Protocol: C8-D1A cells were stained with the green fluorescent probe neuro-DiO (cat. number 60015, Biotium, Fremont, CA, USA) according to the manufacturer’s protocol. C8-D1A-neuroDio cells (150,000) and HD-MB03-mCherry or DAOY-mCherry cells (50,000) were plated in 12-well plates. […] Fluorescence images of the cells were taken with a DMI400 inverted microscope (Leica Microsystemes SAS, Nanterre, France) equipped with a 40× objective and a Zyla 5.5 camera (Andor Technologies, Belfast, UK). The cells were then trypsinized and the number of both cell types was quantified using a Melody FACS (BD Biosciences, Frankton Lake, NJ, USA) with a 488 nm laser beam. Analysis of the FACS data was conducted with the Flowjo software (Tree Star Inc., Ashland, OR, USA).
Two thousand cells were seeded in ultralow-adhesion 96-well plates (Corning Inc., Corning, NY, USA). […] Pictures were taken with an AMG Evos microscope 40× objective (Thermo Fisher Scientific Inc, Waltham, MA, USA) and the spheroid areas were measured using the ImageJ software (NIH, Bethesda, MD, USA).

HD-MB03 [4] = experiment: MTT assay, 48 h exposure, HD-MB03 MB cells; format: cell-based, human; details: for IC50: Homo sapiens, HD-MB03, MTT, 48 h exposure, mean ± SEM
Protocol: (§4) HDF (3000 cells), C8-D1A (5000 cells), D458 (5000 cells), DAOY (2000 cells), HD-MB03 (10,000 cells) and CHLA-01-Med (10,000 cells) were seeded at an approximate confluency of 50% in 96-well plates (Corning Inc., Corning, NY, USA) in 100 µL medium per well. A range from 50 nM to 150 µM of every drug was tested. The effects of the antiangiogenic compounds were measured using a 3-[4,5-dimethylthiazol-2yl]-diphenyltetrazolium bromide (MTT) colorimetric assay (Sigma, Lyon, France) according to the manufacturer’s instructions. When applicable, IC50 was calculated using the nonlinear regression method of the Prism 5 software (Graphpad Software Inc., San Diego, CA, USA). […] An MTT assay was conducted as described above to assess the fitness of the cells.

[5] = test system: subcutaneous HD-MB03 tumors; experiment: Subcutaneous HD-MB03 xenografts; format: in vivo, mouse; details: oral, thrice a week
Protocol: For subcutaneous xenograft experiments, tumor cells expressing the luciferase (350,000 HDMB-Luc cells and 1.10^6 DAOY-Luc cells) were resuspended in 200 µL of 5 µg/mL Matrigel (Corning Inc., Corning, NY, USA) and injected subcutaneously in the flank of 5-week-old Rj:NMRI-Foxn1 nude (nu/nu) female mice (Janvier Labs, Le Genest-Saint-Isle, France). Saline solution (NaCl 0.9M; 100 µL) containing 30 mg/mL D-Luciferin (Perkin Elmer, Wellesley, MA, USA) was injected intraperitoneally in the animals and the bioluminescence was quantified using an In Vivo Imaging System (Perkin Elmer, Wellesley, MA, USA) according to the manufacturer’s instructions. Tumor volume (V = L × l2 × 0.52) was determined with a caliper and the endpoint was determined as a tumor volume of 1000 mm^3. […] The mice were sacrificed when the tumor reached 1000 mm^3. […] No statistical methods were used to predetermine the sample size of the experiments. Animal facility availability and cost were used to determine sample sizes. Two independent cohorts of five mice per group were used for the tumor growth experiment with HD-MB03 cells and one cohort of five mice per group was used for the experiment with DAOY cells. Animal experiments were carried out in strict accordance with the recommendations in the Guide for the Care and Use of Laboratory Animals. Our experiments were approved by Direction de l’Action Sanitaire et Sociale of the Principality of Monaco and the ethics committee of Centre Scientifique de Monaco.
as §1, §2

DAOY [6] = experiment: MTT assay, 48 h exposure, DAOY MB cells; format: cell-based, human; details: for IC50: Homo sapiens, Daoy, MTT, 48 h exposure, mean ± SEM
Protocol: as §4

HD-MB03 [7] = experiment: Cumulative population doubling (CPD), HD-MB03; format: cell-based, human; details: continuous treatment; axitinib 5 µM, etoposide 1 µM
Protocol: as §3

MB cells [8] = experiment: Proliferation index assay, MB cells; format: cell-based, human; details: after 120 h; axitinib 5 µM, etoposide 1 µM
Protocol: DAOY, D458, D283, C8-D1A and HDF (30,000 cells per well) and HD-MB03 (50,000 cells per well) were seeded in 24-well plates for proliferation assays.

C8-D1A = experiment: MTT assay, 48 h exposure, murine primary astrocytes; format: cell-based; details: Mus musculus, C8-D1A
Protocol: as §4

D458 = experiment: MTT assay, 48 h exposure, D458 MB cells; format: cell-based, human; details: for IC50: Homo sapiens, MTT, 48 h exposure, mean ± SEM
Protocol: as §4

CHLA-01-Med = experiment: MTT assay, 48 h exposure, CHLA-01-Med MB cells; format: cell-based, human
Protocol: as §4

HDF = experiment: MTT assay, 48 h exposure, human dermal fibroblasts; format: cell-based; details: Homo sapiens, HDF, Table 1, normal cells, mean ± SEM
Protocol: as §4

C8-D1A astrocytes = experiment: Cell viability, propidium iodine incorporation, C8-D1A; format: cell-based, murine; details: 48 h; axitinib, cabozantinib, sunitinib 5 µM, etoposide 1 µM
Protocol: (§5) Cell viability assays were conducted using a propidium iodine incorporation technique with an ADAM-sHIT automated cell counter (NanoEnTek, Gyeonggi-do, Korea) according to the manufacturer’s protocol.

MB cells [9] = experiment: Cell viability, propidium iodine incorporation, MB cells; format: cell-based, human; details: 48 h, 5 µM
Protocol: as §5

[10] = axitinib 50 mg/kg, etoposide 30 mg/kg, combination 25 + 15 mg/kg

With COc1cc([C@@H]2c3cc4c(cc3[C@@H](O[C@@H]3O[C@@H]5CO[C@@H](C)O[C@H]5[C@H](O)[C@H]3O)[C@H]3COC(=O)[C@H]23)OCO4)cc(OC)c1O [Etoposide, etoposide] the “tumor growth (lognormal mathematical modelling)” value (subcutaneous DAOY tumors) was “decreased tumor growth rates”, the “number of CD31-positive and αSMA-positive double-stained structures (vessels covered with pericytes)” value ([1]; metronomic oral treatment) was “decreased the number” and the “survival of mice with intracranial tumors” value ([1]; oral, five times a week, axitinib 50 mg/kg, etoposide 30 mg/kg, combination 25 + 15 mg/kg) was “no significant effect on survival”. For the same compound, the “long-term proliferation (CPD) of DAOY cells” value (DAOY [2]) was “strongly impaired their proliferation”, the “size of mixed spheroids” value [3] was “strong decrease in the size of spheroids” and the IC50 (HD-MB03 [4]; Table 3) was 0.09 ± 0.006 µM. For the same compound, the “number of endothelial cells (CD31-positive) and/or pericytes/cancer-associated fibroblasts (αSMA-positive)” value [5] was “did not impact”, the “median time to reach the endpoint volume (1000 mm^3)” value [5, 10] was 18 days and the “range of time to reach the endpoint volume (1000 mm^3)” value [5, 10] was 11 to 60 days. The IC50 (DAOY [6]; Table 3) was 0.2 µM, the “long-term proliferation (CPD) of HD-MB03 cells” value (HD-MB03 [7]) was “strongly impaired their proliferation” and the “reduction of proliferation of MB cells” value (MB cells [8]) was “more than 80%”. It also gave an IC50 (C8-D1A; Table 3, mean ± SEM) of 2.2 ± 0.6 µM and an IC50 (D458; Table 3) of 0.52 ± 0.15 µM.

For CCN(CC)CCNC(=O)c1c(C)[nH]c(/C=C2\C(=O)Nc3ccc(F)cc32)c1C [Sunitinib, sunitinib], the IC50 (HD-MB03 [4]; Table 1) was 4.6 ± 0.3 µM, the “Specificity Index relative to C8D1A, HDMB” value (HD-MB03 [4]; ratio IC50 C8-D1A / IC50 HD-MB03) was 1.24 and the “Specificity Index relative to HDF, HD-MB03” value (HD-MB03 [4]; ratio IC50 HDF / IC50 HD-MB03) was 0.39. For the same compound, the IC50 (CHLA-01-Med; Homo sapiens, Table 1, MTT, 48 h exposure, mean ± SEM) was 7.5 ± 0.8 µM, the “Specificity Index relative to C8D1A, CHLA-01-Med” value (CHLA-01-Med; ratio IC50 C8-D1A / IC50 CHLA-01-Med) was 0.76 and the “Specificity Index relative to HDF, CHLA-01-Med” value (CHLA-01-Med; ratio IC50 HDF / IC50 CHLA-01-Med) was 0.24. The IC50 (DAOY [6]; Table 1) was 7.9 ± 5.5 µM, the “Specificity Index relative to C8D1A, DAOY” value (DAOY [6]; ratio IC50 C8-D1A / IC50 DAOY) was 0.72 and the “Specificity Index relative to HDF, DAOY” value (DAOY [6]; ratio IC50 HDF / IC50 DAOY) was 0.23. It also gave an IC50 (HDF) of 1.8 ± 0.04 µM, an IC50 (C8-D1A; Table 1, normal cells, mean ± SEM, read-out: IC50 (µM) C8D1A) of 5.7 ± 2.2 µM and an IC50 (D458; Table 1) of 4.2 ± 0.3 µM. For the same compound, the “Specificity Index relative to C8D1A, D458” value (D458; ratio IC50 C8-D1A / IC50 D458) was 1.36, the “Specificity Index relative to HDF, D458” value (D458; ratio IC50 HDF / IC50 D458) was 0.43 and the “viability of C8-D1A normal cells” value (C8-D1A astrocytes) was “strongly induced the death”. The “viability of MB cells” value (MB cells [9]) was “decreased the viability of most MB cells”.

From publication PMC8750527 (Cancers, 2021)
